Where two headings read alike, the source gives them in different places.
What was measured:
[1] = DIO mouse study: body weight, food intake, liver and heart weight; type: in vivo; settings: DIO mice
Description: (§1) All animal experiments were performed at Chipscreen Biosciences (Shenzhen, China) according to the National Research Council’s Guide for the Care and Use of Laboratory Animals and the Regulations of Experimental Animal Administration issued by the State Committee of Science and Technology of China and approved by Shenzhen Peking University - The Hong Kong University of Science and Technology Medical Center’s Ethics Committee for the Welfare of Laboratory Animals (approval no. 2022-988). Forty C57BL/6J mice (4-5 weeks, male) were received and raised under a standard 12-hour light/dark cycle (lights off at 7:00 pm). Thirty-five mice were fed a fat-rich diet (SYSE Bio-tech, D12492i; 60% of kcal from fat; Changzhou, China), and the other five mice were fed a control diet (Guangdong Medical Laboratory Animal Center, Foshan, China) ad libitum for 12 weeks. […] The mice from Group 2 to Group 5 were fed a high-fat diet. […] Body weight and food intake were measured once daily during treatment. All mice were sacrificed after treatment, and blood, hearts, and livers were collected for further validation.

[2] = test system: HMC; test: Cell viability in kidney cell line HMC; type: cell-based
[3] = Serum pharmacokinetic study, single oral gavage; type: in vivo, C57BL/6J mice; settings: for AUC(0-inf) / AUC(0-t) / Cmax / Tmax / half-life / MRT last: male, mouse, serum, po, orally once, normal C57BL/6J mice; for MRT last: read-out: MRT(0-t)
Description: Then, each group was subdivided into three groups for blood extraction: Group 1, sample collection after 0.5 hours and 2 hours of treatment (n=3); Group 2, sample collection after 1 hour and 4 hours of treatment (n=3); and Group 3, sample collection after 8 hours and 24 hours of treatment (n=3). Approximately 100 μl of blood was collected from the orbit and centrifuged (3500 g, 15 min, 4°C) to extract serum and placed on ice (0°C), and 20 μl of serum was added to 200 μl of extractant (containing 200 ng/ml methanol), which was assessed by liquid chromatography-tandem mass spectrometry (LC−MS/MS) procedures. […]

[4] = test system: NRK49F; test: Cell viability in kidney cell line NRK49F; type: cell-based
[5] = test system: DIO mice; test: DIO mouse study: liver histology (H&E, Oil Red O, NAFLD activity score); type: in vivo, C57BL/6J mice; settings: 3 mg/kg, 10 weeks
Description: All animal experiments were performed at Chipscreen Biosciences (Shenzhen, China) according to the National Research Council’s Guide for the Care and Use of Laboratory Animals and the Regulations of Experimental Animal Administration issued by the State Committee of Science and Technology of China and approved by Shenzhen Peking University - The Hong Kong University of Science and Technology Medical Center’s Ethics Committee for the Welfare of Laboratory Animals (approval no. 2022-988). Forty C57BL/6J mice (4-5 weeks, male) were received and raised under a standard 12-hour light/dark cycle (lights off at 7:00 pm). Thirty-five mice were fed a fat-rich diet (SYSE Bio-tech, D12492i; 60% of kcal from fat; Changzhou, China), and the other five mice were fed a control diet (Guangdong Medical Laboratory Animal Center, Foshan, China) ad libitum for 12 weeks. […] The mice from Group 2 to Group 5 were fed a high-fat diet. Treatments started on the thirteenth week and lasted 10 weeks, in which Groups 1 and 2 received solvent (0.2% CMC-Na), and the other groups were administered corresponding compounds orally once daily (the volume of solvent was 5 ml/kg). Body weight and food intake were measured once daily during treatment. All mice were sacrificed after treatment, and blood, hearts, and livers were collected for further validation.
After the animals were sacrificed, the left hepatic lobe was collected (approximately 100–200 mg) and fixed in 4% paraformaldehyde overnight. The liver tissue was sectioned at a thickness of 5 μm after being paraffin-embedded. Liver sections were stained with haematoxylin and eosin (H&E), and the NAFLD activity scores were determined based on the steatosis, lobular inflammation, and hepatocyte ballooning degeneration in accordance with the standard proposed by Kleiner ([17]).
To analyse the content of lipids in the liver, Oil Red O (ORO) staining of isobutyl alcohol-frozen liver sections was conducted by Wuhan Servicebio Technology Co., Ltd. (Wuhan, China). Each positive region of ORO staining was quantified for each sample using Imangepro plus 6.0 software ([…]).

[6] = Tissue distribution study (heart, liver, kidney, blood) by LC-MS/MS; type: in vivo, C57BL/6J mice; settings: for Concentration, Blood / Concentration, Heart / Kp at 24 h: 24h; for Concentration, Blood / Concentration, Heart: mean; for Kp at 2 h / Kp at 4 h / Kp at 24 h: C57BL/6J, mouse
Description: To detect the tissue distribution of drugs, the heart, liver, and kidney of mice in Group 1, Group 2, and Group 3 were collected at 2 hours, 4 hours, and 24 hours, respectively. Then, 1 ml of 1X PBS was added for tissue homogenization. 50 μl tissue homogenate was added to 500 μl of extractant (containing 200 ng/ml methanol). The protein of tissue samples was precipitated by vortex oscillation for 5 min and centrifuged at 13,000 rpm for 10 min, and 150 μL of supernatant was collected and determined by LC−MS/MS procedures.

[7] = test system: DIO mice; test: RT-PCR of hepatic genes, DIO mice; type: in vivo, C57BL/6J mice
Description: The total RNA of fresh liver tissue was extracted using TRIzol reagent (Invitrogen, Carlsbad, CA, USA), and RNA quality was measured using a Nanodrop2000 by calculating the 260/280 ratio. Based on the manufacturer’s instructions, we reverse-transcribed 5 μg of isolated RNA with a Transcriptor First Strand cDNA Synthesis Kit (Roche Diagnostics, Mannheim, Germany). Real-time PCR (RT−PCR) was conducted to measure the relative expression of genes by using SYBR Green Master (ROX) dye (Roche Diagnostics, Mannheim, Germany) and the ABI Prism 7000 Sequence Detection System (Applied Biosystems, Foster City, CA, USA). Changes in target mRNA were standardized to β-actin mRNA levels for each sample in triplicate. The 2-^△△Ct method was used to determine the relative mRNA expression levels.

[8] = test system: DIO mice; test: DIO mouse study: liver TG and TC; type: in vivo, C57BL/6J mice; settings: 3 mg/kg, 10 weeks
Description: as §1
Blood samples were collected from the orbit and placed for 30 min at room temperature and then centrifuged (3500 g, 15 min, 4°C), and the serum was collected for TG, TC, AST, and ALT tests. […]

[9] = test system: DIO mice; test: DIO mouse study: serum biochemical indices; type: in vivo
Description: as §1
Blood samples were collected from the orbit and placed for 30 min at room temperature and then centrifuged (3500 g, 15 min, 4°C), and the serum was collected for TG, TC, AST, and ALT tests. For the liver TG and TC tests, the right lobe of the liver was collected and weighed accurately, and then isopropanol and absolute ethanol were added at a ratio of 1:9 (weight/volume) for tissue homogenization on ice. Next, the liver sample was centrifuged (10,000 g and 2500 g, 10 min, at 4°C for liver TG and TC extraction, respectively), and the supernatant was collected for liver TG and TC assays. Tests for TC, ALT and AST were performed following the manufacturer’s instructions.

[10] = test system: DIO mice; test: RT-PCR of myocardial energy metabolism gene mGPDH, DIO mice; type: in vivo, C57BL/6J mice
[11] = 10 weeks oral once daily, CS271011 1 and 3 mg/kg, MGL-3196 3 mg/kg
[12] = heart/blood, 10 mg/kg oral, read-out: Ratio (tissue/blood), Heart
[13] = kidney/blood, 10 mg/kg oral, read-out: Ratio (tissue/blood), Kidney
[14] = liver/blood, 10 mg/kg oral, read-out: Ratio (tissue/blood), Liver
[15] = male, heart / blood, 3 mg/kg oral, read-out: Ratio (tissue/blood), Heart
[16] = male, kidney / blood, 3 mg/kg oral, read-out: Ratio (tissue/blood), Kidney
[17] = male, liver / blood, 3 mg/kg oral, read-out: Ratio (tissue/blood), Liver
[18] = 10 weeks of treatment, CS271011 1 and 3 mg/kg, MGL-3196 3 mg/kg

In the case of `CC(C)c1cc(Oc2c(Cl)cc(-n3nc(C#N)c(=O)[nH]c3=O)cc2Cl)n[nH]c1=O` [MGL-3196, 2-[3,5-dichloro-4-(5-isopropyl-6-oxo-1,6-dihydropyridazin-3-yloxy)phenyl]-3,5-dio xo-2,3,4,5-tetrahydro[1,2,4]triazine-6-carbonitrile], the “liver weight and LW/BW” value ([1]; 10-week drug intervention) is reported as “dramatically reduced”, the body weight [1, 11] is reported as “dramatic reduction in body weight” and the food intake [1, 11] is reported as “neither CS271011 nor MGL-3196 impeded food intake”. The cell viability [2] was “no effect on cell viability”, the “bioavailability in vivo, comparison at the same dosage” value ([3]; 3 mg/kg and 10 mg/kg oral) was “higher bioavailability in vivo than CS271011” and the AUC(0-inf) ([3]; 3mg/kg) was 9470 ng·h/mL. The AUC(0-t) ([3]; 3mg/kg) was 9330 ng·h/mL, the Cmax ([3]; 3mg/kg) was 1140 ng/mL and the Tmax ([3]; 3mg/kg) was 2 h. It also gave a half-life ([3]; 3mg/kg) of 3.8 h, an MRT last ([3]; 3mg/kg) of 6.3 h and an AUC(0-inf) ([3]; 10mg/kg) of 35800 ng·h/mL. For the same compound, the AUC(0-t) ([3]; 10mg/kg) was 35600 ng·h/mL, the Cmax ([3]; 10mg/kg) was 4870 ng/mL and the Tmax ([3]; 10mg/kg) was 2 h. The half-life ([3]; 10mg/kg) was 3 h, the MRT last ([3]; 10mg/kg) was 5.8 h and the cell viability [4] was “no effect on cell viability”. The NAS score [5] was “equivalent efficacy”, the ORO staining area [5] was “decreased” and the hepatic ballooning [5] was “mitigated hepatic ballooning with a considerable effect”. For the same compound, the steatosis score [5] was “decreased”, the “tissue distribution (liver targeting)” value ([6]; 3 mg/kg and 10 mg/kg oral, especially 2 and 4 hours after administration) was “liver-targeted” and the “Concentration, Blood” value ([6]; 3 mg/kg oral) was 25.40 ng/g. For the same compound, the “Concentration, Heart” value ([6]; 3 mg/kg oral) was 78.08 ng/g, the “Concentration, Blood” value ([6]; 10 mg/kg oral) was 42.40 ng/g and the “Concentration, Heart” value ([6]; 10 mg/kg oral) was 147.91 ng/g. For the same compound, the Kp at 2 h [6, 12] was 0.113, the Kp at 4 h [6, 12] was 0.112 and the Kp at 24 h [6, 12] was 3.49. It also gave a Kp at 2 h [6, 13] of 0.572, a Kp at 4 h [6, 13] of 0.607 and a Kp at 24 h [6, 13] of 0.734. It also gave a Kp at 2 h [6, 14] of 4.59, a Kp at 4 h [6, 14] of 4.63 and a Kp at 24 h [6, 14] of 4.8. It also gave a Kp at 2 h [6, 15] of 0.213, a Kp at 4 h [6, 15] of 0.146 and a Kp at 24 h [6, 15] of 3.07. It also gave a Kp at 2 h [6, 16] of 0.64, a Kp at 4 h [6, 16] of 0.617 and a Kp at 24 h [6, 16] of 1.25. For the same compound, the Kp at 2 h [6, 17] was 6.59, the Kp at 4 h [6, 17] was 6.17 and the Kp at 24 h [6, 17] was 3.17. The “hepatic expression of Abcc3” value [7] was “negatively regulated”, the “hepatic expression of Csad, Slc25a30 and Tff3 (downregulated in DIO mice)” value [7] was “rescued” and the “hepatic expression of Cyp4a10” value [7] was “obviously downregulated”. For the same compound, the “hepatic expression of Cyp39a1” value [7] was “upregulated”, the “hepatic expression of Hsd17b6” value [7] was “diminished” and the “hepatic expression of LDLR, Cyp7a1, Cyp17a1, Srebp2 and Sqle” value [7] was “positively regulated”. For the same compound, the “hepatic expression of Srebf1” value [7] was “strongly downregulated”, the “hepatic TC concentration” value [8] was “markedly reduced” and the “hepatic TG concentration” value [8] was “markedly reduced”. The “Serum TG” value ([9]; 3 mg/kg, 10 weeks, mean ± SD (DIO control 1.25±0.38)) was 0.59 ± 0.11 mmol/L, the “Serum TC” value ([9]; 3 mg/kg, 10 weeks, mean ± SD (DIO control 7.79±1.67)) was 3.46 ± 1.61 mmol/L and the “serum ALT and AST levels” value ([9]; 10 weeks of treatment) was “no influence”. For the same compound, the “serum TC vs. DIO control” value [9, 18] was “significant reduction”, the “serum TG vs. DIO control” value [9, 18] was “significant reduction” and the “mGPDH expression in the hearts of DIO mice” value [10] was “barely affects”.
